{"source": "paper PMC6017873", "about": "(Molecules : A Journal of Synthetic Chemistry and Natural …, 2018)", "key": {"[1]": {"target": "HDAC1 (Homo sapiens, UniProt Q13547)", "sequence (Q13547 whole entry)": "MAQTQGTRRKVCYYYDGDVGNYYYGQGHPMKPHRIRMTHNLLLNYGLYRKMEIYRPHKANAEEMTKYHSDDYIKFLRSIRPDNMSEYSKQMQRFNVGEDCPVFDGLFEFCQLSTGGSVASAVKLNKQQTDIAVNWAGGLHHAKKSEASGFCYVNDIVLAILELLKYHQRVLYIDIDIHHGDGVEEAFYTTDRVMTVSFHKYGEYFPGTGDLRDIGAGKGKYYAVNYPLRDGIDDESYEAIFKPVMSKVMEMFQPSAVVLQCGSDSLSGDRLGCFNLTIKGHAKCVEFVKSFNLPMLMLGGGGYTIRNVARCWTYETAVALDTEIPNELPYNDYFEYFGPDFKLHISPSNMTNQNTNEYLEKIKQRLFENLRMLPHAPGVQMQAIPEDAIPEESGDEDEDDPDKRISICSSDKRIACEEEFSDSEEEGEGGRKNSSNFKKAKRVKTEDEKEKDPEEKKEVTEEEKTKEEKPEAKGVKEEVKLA", "test": "Selective in vitro HDAC activity assay, recombinant HDAC1", "type": "biochemical", "conditions": "100 µM", "method": "(§1) (a) In vitro total HDAC activity was evaluated using K-562 nuclear extracts in the presence of various concentrations of eurochevalierine. (b) Selective in vitro HDAC activity assays were carried out using selected recombinant HDAC proteins in the presence of various concentrations of eurochevalierine. Results are reported as percent of DMSO vehicle control and expressed as the mean ± SD of three independent experiments. * and ** indicate p < 0.05 and p < 0.01 versus untreated cells, respectively."}, "[2]": {"target": "HDAC2 (Homo sapiens, UniProt Q92769)", "sequence (Q92769 whole entry)": "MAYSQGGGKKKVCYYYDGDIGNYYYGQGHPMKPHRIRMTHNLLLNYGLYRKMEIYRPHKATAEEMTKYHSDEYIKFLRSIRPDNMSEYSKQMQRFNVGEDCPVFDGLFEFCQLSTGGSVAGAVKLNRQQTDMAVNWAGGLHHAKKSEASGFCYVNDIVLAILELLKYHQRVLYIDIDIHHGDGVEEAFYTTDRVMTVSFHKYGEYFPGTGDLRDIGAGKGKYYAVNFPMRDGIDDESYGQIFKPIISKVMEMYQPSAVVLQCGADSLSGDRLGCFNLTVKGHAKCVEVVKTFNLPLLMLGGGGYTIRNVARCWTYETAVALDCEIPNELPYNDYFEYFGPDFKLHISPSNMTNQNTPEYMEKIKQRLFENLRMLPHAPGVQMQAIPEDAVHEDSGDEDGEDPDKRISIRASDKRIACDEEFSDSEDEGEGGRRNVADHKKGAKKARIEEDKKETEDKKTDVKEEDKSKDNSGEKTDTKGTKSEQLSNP", "test": "Selective in vitro HDAC activity assay, recombinant HDAC2", "type": "biochemical", "conditions": "100 µM", "method": "as §1"}, "[3]": {"target": "T1, HDAC6 (Homo sapiens, UniProt Q9UBN7)", "T1 sequence (Q9UBN7 1-1215)": "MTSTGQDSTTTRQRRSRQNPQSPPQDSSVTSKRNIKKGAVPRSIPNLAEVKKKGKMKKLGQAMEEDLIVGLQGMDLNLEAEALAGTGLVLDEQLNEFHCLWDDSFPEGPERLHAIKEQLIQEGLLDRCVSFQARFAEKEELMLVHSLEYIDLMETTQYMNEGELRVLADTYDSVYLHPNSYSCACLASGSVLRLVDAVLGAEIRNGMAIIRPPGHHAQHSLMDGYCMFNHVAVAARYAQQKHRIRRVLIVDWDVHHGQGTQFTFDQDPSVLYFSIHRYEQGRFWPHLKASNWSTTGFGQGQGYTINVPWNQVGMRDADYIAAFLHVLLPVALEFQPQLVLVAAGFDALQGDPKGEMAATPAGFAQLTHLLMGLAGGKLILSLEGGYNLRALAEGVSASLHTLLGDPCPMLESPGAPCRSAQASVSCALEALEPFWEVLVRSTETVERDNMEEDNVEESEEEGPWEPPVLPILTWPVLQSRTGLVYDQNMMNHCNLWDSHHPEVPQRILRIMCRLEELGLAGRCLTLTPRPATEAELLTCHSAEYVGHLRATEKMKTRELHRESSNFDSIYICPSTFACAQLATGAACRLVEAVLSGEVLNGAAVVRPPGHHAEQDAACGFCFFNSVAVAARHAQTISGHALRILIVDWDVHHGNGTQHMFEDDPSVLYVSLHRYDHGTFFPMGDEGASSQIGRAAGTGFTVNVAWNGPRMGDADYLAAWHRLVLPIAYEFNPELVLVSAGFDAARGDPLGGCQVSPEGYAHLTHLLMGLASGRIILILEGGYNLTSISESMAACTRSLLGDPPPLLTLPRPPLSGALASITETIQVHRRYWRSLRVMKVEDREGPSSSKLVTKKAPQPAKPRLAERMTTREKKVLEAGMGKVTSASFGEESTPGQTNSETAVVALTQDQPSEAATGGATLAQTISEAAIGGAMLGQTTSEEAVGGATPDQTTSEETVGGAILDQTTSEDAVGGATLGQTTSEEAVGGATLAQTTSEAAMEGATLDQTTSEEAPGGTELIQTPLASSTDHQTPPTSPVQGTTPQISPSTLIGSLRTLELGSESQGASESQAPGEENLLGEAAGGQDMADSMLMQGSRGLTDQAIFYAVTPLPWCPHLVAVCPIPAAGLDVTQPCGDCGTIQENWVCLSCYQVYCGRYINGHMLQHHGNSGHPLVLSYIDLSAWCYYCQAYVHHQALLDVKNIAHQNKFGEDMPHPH", "test": "Selective in vitro HDAC activity assay, recombinant HDAC6", "type": "biochemical", "method": "as §1"}, "[4]": {"target": "T2, HDAC8 (Homo sapiens, UniProt Q9BY41)", "T2 sequence (Q9BY41 1-377)": "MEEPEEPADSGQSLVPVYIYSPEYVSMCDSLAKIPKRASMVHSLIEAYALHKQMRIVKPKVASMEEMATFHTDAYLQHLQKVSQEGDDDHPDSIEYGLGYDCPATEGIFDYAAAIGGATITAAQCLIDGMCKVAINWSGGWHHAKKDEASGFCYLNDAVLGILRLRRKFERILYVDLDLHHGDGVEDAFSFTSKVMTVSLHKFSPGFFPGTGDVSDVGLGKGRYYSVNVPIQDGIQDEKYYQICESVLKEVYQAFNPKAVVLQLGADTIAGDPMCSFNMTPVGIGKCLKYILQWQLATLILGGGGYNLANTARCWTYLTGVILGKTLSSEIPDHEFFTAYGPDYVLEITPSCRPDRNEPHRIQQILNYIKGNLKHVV", "test": "Selective in vitro HDAC activity assay, recombinant HDAC8", "type": "biochemical", "conditions": "100 µM", "method": "as §1"}, "[5]": {"system": "primary human CD34+ stem/progenitor cells", "test": "Growth and viability of primary CD34+ stem/progenitor cells", "type": "cell-based", "method": "Figure 7 Only very high concentrations of eurochevalierine impair the growth of healthy primary human CD34^+ stem/progenitor cells. CD34^+ cells were incubated with the indicated concentrations of eurochevalierine and cell growth (a) and viability (b) were assessed after 72 h of treatment. Results correspond to the mean ± SD of three independent experiments with * and ** indicate p < 0.05 and p < 0.01 versus control.\nPrimary CD34^+ progenitor/stem cells were isolated from human umbilical cord blood obtained from the Clinique Bohler (Hôpitaux Robert Schuman, Luxembourg, Luxembourg) with the written informed consent of parents with the approval of the National Research Ethics Committee of Luxembourg. First, mononucleated cells were isolated by Ficoll™ (GE Healthcare, Roosendaal, The Netherlands) density gradient centrifugation. CD34^+ cells were then purified out from mononucleated cells using magnetic cell sorting following the manufacturer’s instructions (MACS Miltenyi, Utrecht, The Netherlands).\nHigh purity CD34^+ cells were treated after 3 days of amplification in Stemline® II Hematopoietic Stem cell Expansion Medium (Sigma) supplemented with 1% antibiotic-antimycotic (BioWhittaker®, Lonza, Verviers, Belgium), 4 mM L-glutamine (BioWhittaker®), 50 ng/mL stem cell factor (ReliaTech, Wolfenbüttel, Germany), and 10 ng/mL interleukin 3 (Reliatech, Wolfenbüttel, Germany). Other cell models were cultured in RPMI1640 (BioWhittaker®) supplemented with 10% heat-inactivated fetal calf serum (BioWhittaker®) and 1% antibiotic-antimycotic. Cell lines were cultured at 37 °C in a humid atmosphere and at 5% CO2.\nPBMCs and CD34^+ cells were processed through a semi-automated image-based cell analyzer (Cedex XS Innovatis, Roche, Luxembourg), which provides information about cell concentration and viability based on the Trypan Blue exclusion method."}, "[6]": {"system": "panel of cancer cell lines", "parameters": "method as in PMID 22976482", "conditions": "read-out: mean IC50 for the growth inhibition of cancer cells; cited from earlier work"}}}
{"smiles": "C=C(C)[C@@H]1CC[C@@H](C)[C@@]2(O)[C@@H]1C=C(C)[C@@H](OC(C)=O)[C@@H]2OC(=O)[C@H](CC(=O)c1ccccc1NC)NC=O", "note": "[Eurochevalierine, eurochevalierine]", "values": [{"measurement": "effect on HDAC1 deacetylase activity", "setting": "[1]", "result": "without effect"}, {"measurement": "effect on HDAC2 deacetylase activity", "setting": "[2]", "result": "without effect"}, {"measurement": "inhibition at 100 µM", "setting": "[3]", "result": "~36", "unit": "%"}, {"measurement": "effect on HDAC8 deacetylase activity", "setting": "[4]", "result": "without effect"}, {"measurement": "impact on CD34+ cell viability", "setting": "[5]; 200 µM, 72 h", "result": "minor impact on cell viability"}, {"measurement": "IC50", "setting": "[5]; Homo sapiens, 72 h, read-out: IC50 growth inhibition of CD34+ cells", "result": "> 200", "unit": "µM"}, {"measurement": "inhibition at 200 µM", "setting": "[5]; Homo sapiens, 200 µM, 72 h, read-out: maximum growth inhibition of CD34+ cells", "result": "~30", "unit": "%"}, {"measurement": "selectivity factor cancer cells versus normal proliferating CD34+ cells", "setting": "[5]; IC50 in healthy cells (>200 µM) versus mean IC50 in cancer cells (28 µM)", "result": "> 7"}, {"measurement": "IC50", "setting": "[6]", "result": 28, "unit": "µM"}]}
